Source: patent US20230201290A1, “TGF-BETA INHIBITION, AGENTS AND COMPOSITION THEREFOR” (GMP BIOTECHNOLOGY LIMITED, priority 2020, published 2023)

How the values were obtained:
IL-6 = conditions: data-mining of P001 cytokine profiling
[1] = system: advanced pancreatic cancer; assay: Phase I/II study P001: patients with pancreatic cancer; assay type: in vivo, human
Excerpt: P001 is a completed Phase I/II dose escalation study. Primary objective is the determination of the MTD as well as the DLT of 2 cycles as core treatment and up to 8 optional extension cycles of trabedersen administered i.v. for 4 or 7 d every other week, as described in the following. The study followed a classical cohort design with 3 evaluable patients per cohort. Patients treated with the 1st schedule received trabedersen continuously for 7 d, followed by a treatment-free interval of 7 d for each treatment cycle (7-d-on, 7-d-off). After the MTD had been reached for this schedule, a 2nd schedule of 4 d trabedersen administration, followed by a treatment-free interval of 10 d for each treatment cycle was started (4-d-on, 10-d-off). In this treatment schedule the MTD has not been reached.
Trabedersen was administered as i.v. continuous infusion for 4 or 7 days every other week via an implanted subcutaneous port system connected to a portable pump and with a flow rate of 0.8 mL/h. The core treatment consisted of 2 treatment cycles. Up to 8 optional extension cycles were administered in case of clinical benefit.
The overall survival is calculated for all patients as the survival time from the onset of treatment with study medication to death due to any cause and analyzed with the Kaplan-Meier method.
Altogether 21 patients with pancreatic cancer were treated during dose escalation.
There was no clear dose-response relationship, neither in the 7-days-on, 7-days-off schedule nor in the 4-days-on, 10-days-off schedule. A similar pattern is seen when the 5 patients with malignant melanoma and 5 patients with colorectal cancer treated during dose-escalation are also included.

[2] = system: patient derived autologous HGG cells; assay: LAK cell-mediated autologous cytotoxicity (calcein-release assay); assay type: cell-based, human; conditions: untreated control 16%
Experimental: Human HGG cells were obtained from surgical specimens of 5 patients. PBMCs from these patients were activated with human recombinant IL-2 to generate lymphokine-activated killer (LAK) cells as effector cells, which are known to lyse most autologous and allogenic fresh human tumor cells. LAK cell-mediated cytotoxicity against the patient derived autologous HGG cells (target cells) was tested in a cell co-culture system using the calcein-release assay.

TGF-β2 secretion = TGF-β2 secretion in human tumor cell lines; assay type: cell-based; conditions: human HGG cell line A-172, 7 days, 10 trabedersen (unit not given)
Experimental: The effect of trabedersen on TGF-β2 secretion was analyzed in cell lines of human HGG, human pancreatic carcinoma, malignant melanoma, colorectal carcinoma, and other tumors (prostate carcinoma, renal cell carcinoma, and non-small cell lung carcinoma). The TGF-β2 concentration in cell culture supernatants after treatment with trabedersen for 7 days was analyzed.
The biological activity of truncated trabedersen, i.e. metabolites, in comparison to full-length trabedersen with respect to inhibition of TGF-β2 secretion was tested in the human HGG cell line A-172.

human PBMCs = assay: Viability and proliferation of human PBMCs; assay type: cell-based
Experimental: Cell viability was assessed following treatment of human PBMCs with trabedersen in vitro using the Trypan blue exclusion test. Freshly isolated, IL-2 activated PBMCs from healthy donors and HGG patients were incubated either without trabedersen or with 1, 5, 10 or 80 μM trabedersen for 2, 3, 6, 7, 14, and 21 day. […] There was no difference in cell viability between untreated and trabedersen treated cells.

malignant melanoma = assay: Phase I/II study P001: patients with malignant melanoma; assay type: in vivo, human
[3] = Toxicology in monkeys (LOAEL); assay type: in vivo
C8161 human melanoma = assay: Orthotopic C8161 human melanoma model; conditions: group 2: 16 mg/kg SC 3 times/week

## cggcatgtct attttgta (antisense CGGCATGTCTATTTTGTA; chemistry not given here) [OT-101]
Vero 76 cells
  CC50: > 1000 µg/mL
Vero 76 cells; 1000 μg/ml
  Toxicity at the highest dose: not toxic
IL-6
  signal of cytokine storm following treatment: no signal of cytokine storm
[1]; 2nd-line therapy, independent of dose and schedule
  mOS: 8.9 months
[1]; 2nd-line, 140 mg/m^2/day 4-on/10-off, no subsequent chemotherapy
  mOS: 2.6 months
[1]; 2nd-line, 140 mg/m^2/day 4-on/10-off, with subsequent chemotherapy
  mOS: 16.9 months
[1]; 2nd-line, 140 mg/m^2/day, 4-days-on, 10-days-off
  mOS: 14.5 months
[1]; 4-days-on, 10-days-off, 140 mg/m^2/day
  Median Overall Survival, Patients with pancreatic cancer: 14.5 months
[1]; 4-days-on, 10-days-off, 140 mg/m^2/day (additional patients)
  Median Overall Survival, Patients with pancreatic cancer: 3.3 months
[1]; 4-days-on, 10-days-off, 190 mg/m^2/day
  Median Overall Survival, Patients with pancreatic cancer: 6.2 months
[1]; 4-days-on, 10-days-off, 250 mg/m^2/day
  Median Overall Survival, Patients with pancreatic cancer: 7.3 months
[1]; 4-days-on, 10-days-off, 330 mg/m^2/day
  Median Overall Survival, Patients with pancreatic cancer: 2.4 months
[1]; 7-days-on, 7-days-off, 40 mg/m^2/day
  Median Overall Survival, Patients with pancreatic cancer: 6.9 months
[1]; 7-days-on, 7-days-off, 80 mg/m^2/day
  Median Overall Survival, Patients with pancreatic cancer: 4.6 months
[1]; 7-days-on, 7-days-off, 160 mg/m^2/day
  Median Overall Survival, Patients with pancreatic cancer: 3.9 months
[1]; 7-days-on, 7-days-off, 240 mg/m^2/day
  Median Overall Survival, Patients with pancreatic cancer: 5.5 months
[1]; all 35 pancreatic carcinoma patients, independent of dose and schedule
  mOS: 4.9 months
[1]; dose escalation, 4-days-on, 10-days-off schedule
  mOS: 9.3 months
[1]; dose escalation, 7-days-on, 7-days-off schedule
  mOS: 5.7 months
[2]
  autologous cytotoxicity against human HGG cells, mean: 40%
TGF-β2 secretion
  highest inhibitory effect on TGF-β2 secretion: 64%
Human PBMCs; 80 μM, 7 days
  PBMC proliferation, of untreated control cells: 67%
Human PBMCs; 1, 5, 10 or 80 μM, up to 21 day, Trypan blue
  effects on the viability of PBMCs: No relevant effects
Human PBMCs; 5, 10 or 50μM
  Proliferation of PBMCs: within the range of variation
SARS-CoV (Urbani strain); SARS-CoV (Urbani strain), Vero 76, CPE neutral red, day 5
  EC50: 50% effective antiviral concentration: 7.6 µg/mL
SARS-CoV (Urbani strain); SARS-CoV, Vero 76 cells
  SI (CC50/EC50): >38
Malignant melanoma; 4-days-on, 10-days-off schedule
  Survival: 11.4 months
Malignant melanoma; 4-days-on, 10-days-off, with subsequent therapies
  mOS: 13.5 months
Malignant melanoma; 4-days-on, 10-days-off, without subsequent therapies
  mOS: 6.0 months
Malignant melanoma; 7-days-on, 7-days-off schedule
  Survival: 7.8 months
Malignant melanoma; 14 additional patients, 140 mg/m^2/day, 4-days-on, 10-days-off
  mOS: 10.4 months
Malignant melanoma; all melanoma patients independent of dose and schedule
  mOS: 11.4 months
Malignant melanoma; last cohort 140 mg/m2/day, followed by subsequent therapy
  mOS: 13.5 months
Malignant melanoma; last cohort 140 mg/m2/day, no subsequent therapy
  mOS: 6.0 months
Malignant melanoma; melanoma patients of dose escalation
  mOS: 13.8 months
Malignant melanoma; two patients, 2nd-line, 140 mg/m^2/day 4-on/10-off
  mOS: 9.5 months
[3]
  Lowest-Observed-Adverse-Effect Level (LOAEL), equivalent in human adults: 48 mg/m^2/day
SARS-COV-2 USA_WA1/2020; SARS-CoV-2
  SI=CC50/EC50: >500
SARS-COV-2 USA_WA1/2020; SARS-CoV-2, Vero 76 cells
  SI (CC50/EC50): >500
SARS-COV-2 USA_WA1/2020; SARS-CoV-2 USA_WA1/2020, Vero 76, CPE neutral red, day 5
  EC50: 50% effective antiviral concentration: 2.0 µg/mL
SARS-COV-2 USA_WA1/2020; read-out: EC50 (value in brackets), SARS-CoV-2 USA_WA1/2020, Vero 76
  EC50: 330 nM
C8161 human melanoma
  Tumor growth suppressed versus control group 1 on day 42: 2%
